The values below come from patent US20210205292A1, “INHIBITORS OF CREB-CBP INTERACTION FOR TREATMENT OF LEUKEMIA” (The Board of Trustees of the Leland Stanford Junior …, priority 2016, published 2021).

Broadly, the IC50 is the concentration at which inhibition is half-maximal. Read a low IC50 as greater potency.

The subject of one assay is Caspase-3. Kind of assay: Caspase-3 protease activity (ApoTarget kit). The class given is cell-based. As to conditions: etoposide control. The source says: The ApoTarget Caspase-3 Protease Activity Kit (Invitrogen) was used per manufacturer's instructions.
The balance between pro- and anti-apoptotic protein expression contributes to cell fate decisions. CREB regulates the expression of several anti-apoptotic proteins, including Bcl-2, Bcl-XL and Mcl-1. Bcl-2 expression in particular is known to mediate resistance to chemotherapy and influence clinical outcome in a number of cancer types, including AML. The ability of Compound A to cause apoptosis by disrupting the CREB-driven expression of these anti-apoptotic proteins was examined. In HL-60 cells treated with Compound A, apoptosis is induced in a dose- and time-dependent manner. […] Compound A elicited apoptosis through the intrinsic apoptosis pathway, with activation of Caspase-3 (FIG. 5, panel B) and detectable Caspase-9 cleavage (data not shown). Relative caspase-3 activity at 24 hours: 5.4±0.8 for etoposide, 1±0.78, 0.93±0.71, 1.02±0.67, 2.9±0.58, 5.1±0.63, 4.1±0.71 for 0, 1, 1.5, 2, 2.5 and 3 mM Compound A, respectively. Activity at 72 hours: 1.2±0.05 for etoposide, 1.0±0.02, 1.9±0.03, 3.7±0.04, 4.4±0.05, 2.1±0.03, 1.9±0.02 for 0, 1, 1.5, 2, 2.5 and 3 mM Compound A, respectively. The transcription of Bcl-2 decreased following 72 hours of 2 mM Compound A treatment (FIG. 5, panel C), and this was verified by Western blot analysis (FIG. 5, panel D). […] To confirm whether loss of Bcl-2 function alone is sufficient to induce apoptosis in AML cells, HL-60 cells were treated with the validated Bcl-2 inhibitor ABT-737 (50 to 200 nM). […] Bcl-2 levels are influenced by CREB expression in these AML cell lines (FIG. 11, panel C).

Assay [1] deals with Jukat (human T lymphocyte cell line for acute T cell leukemia). As to the kind of experiment: CellTiter Glo assay in Jukat cells. The class given is cell-based. The method, then:
(§1) The compounds prepared according to the methods described herein and tested for activity in the CellTiter Glo assay in HL60 (Human promyelocytic leukemia cell line), Jukat (human T lymphocyte cell line for acute T cell leukemia) and/or Nalm6 (human ALL cell line) cells.
(§2) Compounds were prepared according to the methods described herein and tested for activity in the CellTiter Glo assay in HL60 (Human promyelocytic leukemia cell line), Jukat (human T lymphocyte cell line for acute Tcell leukemia) and/or Nalm6 (human ALL cell line) cells.
In general terms: ATP-based viability assays read luminescence as a measure of living cells.

Assay [2] has as its system Nalm6 (human ALL cell line). Kind of assay: CellTiter Glo assay in Nalm6 cells. The class given is cell-based. The procedure:
as §1, §2

In assay [3] the test system is HL60 (Human promyelocytic leukemia cell line). As to the kind of experiment: CellTiter Glo assay in HL60 cells. The class given is cell-based. The procedure: as §1, §2
The subject of a further assay is HL-60 cells. As to the kind of experiment: HL-60 viability, combination of Compound A with kinase inhibitors. The class given is cell-based, human. Particulars: 48 hours.
Another assay concerns CREB phosphorylation. As to the kind of experiment: CREB phosphorylation in HL-60 cells. The class given is cell-based, human. As to conditions: HL-60 cells; BI-D1870 5 μM, SB202190 10 μM, U0126 10 μM. From the text:
FIG. 12, panels A-D, illustrates the results of CyTOF Phenotyping and Compound A Combination Studies. […] Viability for Compound A treatment alone was 87.4±7.3%, versus 55.3±3.4% and 49.5±2.3% when combined with ERK and RSK inhibitors, respectively (* indicates p<0.05 compared to cells treated with Compound A alone). Panel D) Compound A inhibits CREB phosphorylation in the presence of serum. HL-60 cells were serum-starved then stimulated with serum.
Cells were lysed in RIPA buffer (Sigma), and the protein concentrations were determined by BCA assay (Thermo Scientific Pierce). Lysates were solubilized in 6×SDS PAGE buffer and […] of protein was loaded into 6-15% SDS PAGE gels, pheresed, and then transferred onto […] PVDF membrane (Millipore). Primary antibodies were applied at a dilution of 1:1000. Anti-Bcl-2, -Bax, -Mcl-1, -Bcl-XL, -Cyclin A and -Cyclin D1 antibodies were purchased from Cell Signaling Technologies. Anti-total acetylated histone and -ac-H3K27 were purchased from Santa Cruz Biotechnologies. Anti-actin and -CREB antibodies were purchased from upstate. Secondary antibodies were used at a 1:2500 dilution and purchased from Thermo Scientific/Pierce. WesternBright ECL was used for image acquisition on Image Lab software (Bio-Rad).

`COc1cc([C@@H]2c3cc4c(cc3[C@@H](O[C@@H]3O[C@@H]5CO[C@@H](C)O[C@H]5[C@H](O)[C@H]3O)[C@H]3COC(=O)[C@H]23)OCO4)cc(OC)c1O` [etoposide, reference compound]: the figures for the “relative caspase-3 activity” value in the assay on Caspase-3 (24 hours) and in the assay with Caspase-3 (72 hours) were 5.4±0.8 and 1.2±0.05, respectively.
As to `O=C(Nc1ccc(Cl)c(C(F)(F)F)c1)c1cc(F)ccc1O` [Compound 47], the IC50 was > 10000 nM in assay [1] (second Table 4); < 1000 nM in assay [2] (NALM-6, second Table 4); < 1000 nM in assay [3] (HL-60, second Table 4).
Consider `N#Cc1ccc(NC(=O)c2ccc3cccnc3c2O)cc1` [Compound 64], for which the half-maximal inhibitory concentration (IC50) in assay [1] (Table 5) is 100 to 1000 nM; in assay [2] (NALM-6, Table 5) it was < 100 nM; in assay [3] (HL-60, Table 5), 100 to 1000 nM.
For `O=C(Nc1cc(Cl)cc(Cl)c1)c1cc(F)ccc1O` [Compound 42], the IC50 in assay [1] (second Table 4) is < 1000 nM; in assay [2] (NALM-6, second Table 4), 1000 to 10000 nM; in assay [3] (HL-60, second Table 4), < 1000 nM.
For the molecule `O=C(Nc1cccc(F)c1F)c1cc(F)ccc1O` [Compound 40], the IC50 in assay [1] (second Table 4) lay within 1000 to 10000 nM; in assay [2] (NALM-6, second Table 4), 1000 to 10000 nM; in assay [3] (HL-60, second Table 4), 1000 to 10000 nM.
As for `CC(C)CCN1c2nc(Nc3cc(F)c(O)c(F)c3)ncc2N(C)C(=O)C1C` (stereo not drawn) [BI-D1870, reference compound], the “effect of combination with Compound A on viability” value with HL-60 cells is given as “additive effects”. For the same molecule, in the assay on CREB phosphorylation, the “compensatory CREB phosphorylation following Compound A treatment” value is recorded as “blocked compensatory CREB phosphorylation”.
In the case of `O=C(Nc1ccc(F)c(F)c1)c1cc(F)ccc1O` [Compound 32], the IC50 in assay [1] (second Table 4) is < 1000 nM; in assay [2] (NALM-6, second Table 4), 1000 to 10000 nM; in assay [3] (HL-60, second Table 4), < 1000 nM.
Consider `N#Cc1cc(NC(=O)c2cc(F)ccc2O)ccc1F` [Compound 20], for which the IC50 in assay [1] (second Table 4) was in the range of 1000 to 10000 nM; in assay [2] (NALM-6, second Table 4), 1000 to 10000 nM; in assay [3] (HL-60, second Table 4), 1000 to 10000 nM.
As to `Cc1cc(C(=O)Nc2ccc(C#N)cc2)c(O)c2ncccc12` [Compound 73], the IC50 in assay [1] (Table 5) is 100 to 1000 nM; in assay [2] (NALM-6, Table 5) it was 100 to 1000 nM; in assay [3] (HL-60, Table 5) it was 1000 to 10000 nM.
Regarding `O=C(Nc1cc(C(F)(F)F)cc(C(F)(F)F)c1)c1cc(F)ccc1O` [Compound 51], the IC50 is < 1000 nM in assay [1] (second Table 4); < 1000 nM in assay [2] (NALM-6, second Table 4); < 1000 nM in assay [3] (HL-60, second Table 4).
Regarding `Cc1ccc(C#N)c(NC(=O)c2ccc3cccnc3c2O)c1` [Compound 86], the IC50 in assay [1] (Table 5) lay within 100 to 1000 nM; in assay [2] (NALM-6, Table 5), 100 to 1000 nM; in assay [3] (HL-60, Table 5), 1000 to 10000 nM.
`N#Cc1cc(Cl)ccc1NC(=O)c1ccc2cccnc2c1O` [Compound 84]: the IC50 in assay [1] (Table 5) was < 100 nM; in assay [2] (NALM-6, Table 5) it was 100 to 1000 nM; in assay [3] (HL-60, Table 5) it was 100 to 1000 nM.
On to `CCOC(=O)c1ccc(NC(=O)c2cc(F)ccc2O)cc1` [Compound 57], for which the IC50 in assay [1] (second Table 4) lay within 1000 to 10000 nM; in assay [2] (NALM-6, second Table 4), 1000 to 10000 nM; in assay [3] (HL-60, second Table 4), 1000 to 10000 nM.
With `O=C(Nc1ccc(F)cc1F)c1cc(F)ccc1O` [Compound 39], the IC50 in assay [1] (second Table 4) was 1000 to 10000 nM; in assay [2] (NALM-6, second Table 4), 1000 to 10000 nM; in assay [3] (HL-60, second Table 4), 1000 to 10000 nM.
Consider `Oc1ccc(-c2nc(-c3ccncc3)c(-c3ccc(F)cc3)[nH]2)cc1` [SB202190, reference compound], for which the “effect of combination with Compound A on viability” value in the assay with HL-60 cells is “additive effects”. In the assay with CREB phosphorylation, the “compensatory CREB phosphorylation following Compound A treatment” value is “blocked compensatory CREB phosphorylation”.
For the molecule `O=C(Nc1cccc(Cl)c1)c1cc(F)ccc1O` [Compound 43], the IC50 in assay [1] (second Table 4) is 1000 to 10000 nM; in assay [2] (NALM-6, second Table 4), 1000 to 10000 nM; in assay [3] (HL-60, second Table 4), 1000 to 10000 nM.
`Cc1cc(NC(=O)c2cc(F)ccc2O)ccc1F` [Compound 56]: the IC50 in assay [1] (second Table 4) was < 1000 nM; in assay [2] (NALM-6, second Table 4), 1000 to 10000 nM; in assay [3] (HL-60, second Table 4) it was 1000 to 10000 nM.
In the case of `N#Cc1ccc(NC(=O)c2cc(-c3ccccc3)c3cccnc3c2O)cc1` [Compound 65], the IC50 in assay [1] (Table 5) was 100 to 1000 nM; in assay [2] (NALM-6, Table 5), 100 to 1000 nM; in assay [3] (HL-60, Table 5) it was 100 to 1000 nM.
For `N#Cc1ccc(NC(=O)c2ccc3cccnc3c2O)c(C#N)c1` [Compound 85], the IC50 in assay [1] (Table 5) lay in the range of 100 to 1000 nM; in assay [2] (NALM-6, Table 5) it was 100 to 1000 nM; in assay [3] (HL-60, Table 5), 100 to 1000 nM.
`O=C(Nc1ccc(Cl)cc1)c1ccc2cccnc2c1O` [Compound 67]: the IC50 lay in the range of 100 to 1000 nM in assay [1] (Table 5); 100 to 1000 nM in assay [2] (NALM-6, Table 5); 100 to 1000 nM in assay [3] (HL-60, Table 5).
Regarding `Cc1ccc(NC(=O)c2cc(F)ccc2O)cc1C(F)(F)F` [Compound 49], the IC50 in assay [1] (second Table 4) is 1000 to 10000 nM; in assay [2] (NALM-6, second Table 4) it was 1000 to 10000 nM; in assay [3] (HL-60, second Table 4), < 1000 nM.
Regarding `O=C(Nc1cccc(F)c1)c1cc(F)ccc1O` [Compound 33], the IC50 in assay [1] (second Table 4) is 1000 to 10000 nM; in assay [2] (NALM-6, second Table 4), 1000 to 10000 nM; in assay [3] (HL-60, second Table 4), 1000 to 10000 nM.
For `O=C(Nc1ccc(Cl)cc1F)c1cc(F)ccc1O` [Compound 37], the IC50 was < 1000 nM in assay [1] (second Table 4); 1000 to 10000 nM in assay [2] (NALM-6, second Table 4); 1000 to 10000 nM in assay [3] (HL-60, second Table 4).
As to `O=C(Nc1cccc(C(F)(F)F)c1)c1cc(F)ccc1O` [Compound 50], the IC50 in assay [1] (second Table 4) is < 1000 nM; in assay [2] (NALM-6, second Table 4), 1000 to 10000 nM; in assay [3] (HL-60, second Table 4) it was < 1000 nM.
